# Laboratory results: patent US20240374753A1, “USE OF AN AGONIST OF FORMYL PEPTIDE RECEPTORS 1 AND 2 FOR TREATING OCULAR INFLAMMATORY DISEASES” (ALLGENESIS BIOTHERAPEUTICS INC., priority 2023, published 2024)
# Columns and labels:
# Preclinical studies = assay type: in vivo
# [1] = tested on: patients with dry eye disease; experiment: Safety and tolerability (TEAEs), Phase 1b study; assay type: in vivo, human; settings: BID for 3 months, both formulations
# [2] = Stabilisation/solubility of AG-80308 with HPβCD; assay type: physicochemical; settings: storage or stress conditions
# [3] = tested on: patients with dry eye disease; experiment: Corneal fluorescein staining (NEI Scale), Phase 1b study; assay type: in vivo, human; settings: for Corneal staining, unit improvement from baseline: p<0.05
# Method: (§1) A multicenter, double-masked, randomized, parallel-group Phase 1b study evaluating the safety, tolerability, and dose-response of AG-80308 ophthalmic solution administered twice daily for 3 months in 84 patients with dry eye disease was conducted. […] 2-Hydroxypropyl-beta-cyclodextrin (HPβCD) was used in formulations A and B. The efficacy measures included both signs (ocular surface staining, tear film breakup time, Schirmer's test, meibomian gland assessments) and symptoms (7-item visual analog scale (VAS) assessments: burning/stinging, itching, foreign body sensation, eye discomfort, eye dryness, photophobia, pain and ocular surface disease index).
# (§2) In this study, a single eye drop (approximately 30 μL) of AG-80308 was administered BID (approximately 12 hours apart) to the study eye every day until the Day 84 visit.
# Corneal fluorescein staining was assessed in each eye at Visit 1 (Day −30 to Day −2), Visit 2 (Day 1), Visit 4 (Day 43), and Visit 5 (Day 84) using the NEI Scale. The NEI Scale uses a standardized grading system of 0 to 3 using whole number units for each of the […] areas on each cornea. Grade 0 was specified when no staining is present.
# [4] = tested on: patients with dry eye disease; experiment: Ocular surface disease index, Phase 1b study; assay type: in vivo, human; settings: overall study summary
# Method: as §1, §2
# [5] = tested on: patients with dry eye disease; experiment: 7-item VAS symptom assessment, Phase 1b study; assay type: in vivo, human; settings: overall study summary
# Method: as §1, §2
# The VAS symptom assessment was performed at Visit 1 (Day −30 to Day −2), Visit 2 (Day 1), Visit 3 (Day 15), Visit 4 (Day 43), and Visit 5 (Day 84). Subjects were asked to rate each ocular symptom, unrelated to study drug instillation, by placing a vertical mark on the horizontal line to indicate the level of discomfort. Zero millimeters (mm) corresponds to “no discomfort” and 100 mm corresponds to “maximal discomfort. The symptoms evaluated were burning/stinging, itching, foreign body sensation, eye discomfort, eye dryness, photophobia, and pain. […]
structure (smiles),measurement,setting,value
"CC(C)C[C@H](NC(=O)Nc1ccc(Br)cc1)C(=O)NCC(=O)O [AG-80308, {[(2S)-2-{[(4-bromophenyl)carbamoyl]amino}-4-methylpentanoyl]amino}acetic acid]",Efficacy in preclinical studies,Preclinical studies,rapid efficacy similar to steroids without any impairment of wound healing
same,Safety and tolerability in preclinical studies,Preclinical studies,wide margin of safety and tolerability
same,Safety,[1],proven safe
same,Effect of HPβCD on stability and solubility of AG-80308,[2],"increasing solubility of AG-80308 and its degradant, preventing precipitation"
same,"Corneal staining, unit improvement from baseline","[3]; Day 43, LS Mean±SE",−2.1±0.57
same,"Corneal staining, unit improvement from baseline","[3]; Day 84, LS Mean±SE",−2.7±0.57
same,Corneal and conjunctival staining,[3]; overall study summary,clinically meaningful unit reductions
same,Ocular surface disease index scores,[4],clinically meaningful unit reductions
same,7-item visual analog scale for dry eye symptoms,[5],clinically meaningful unit reductions
